Marks after values point to notes of the source that are not given here.
How the values were obtained:
[1] = system: α-sarcoglycan (SG)-null C57BL/6 mice; assay: Histology of diaphragm and tibialis anterior (inflammatory infiltrates, necrotic fibres), muscular dystrophy model; type: in vivo; details: for Overall effect on histological, functional and biochemical alterations (in words): α-SG-null mice, 20 to 80 days, summary of tables 1 and 2
Experimental: (§1) Muscular Dystrophy Model (α-Sarcoglycan-Deficient Mice)
(§2) • 2-acetyloxy benzoic acid 3-(nitrooxymethyl)benzoate of formula (Ib); • pravastatin 4-(nitrooxy)butyl ester which of formula (XXXVb); • 2-fluoro-alfa-methyl-4[1,1′-biphenyl]4-acetic acid 4-nitrooxybutyl ester of formula (IIIb); • prednisolone as reference corticosteroid drug. […] At indicated time-points (ranging from 20 to 80 days) skeletal muscle function was tested by the free wheel test. 24 hours later animals were sacrificed, tissue isolated and histological characteristics analysed. Infiltrates were assessed after staining with the Azan Mallory technique; Necrotic fibres were measured in hematoxilin-stained sections; creatin kinase was measured using a commercially available kit on blood samples obtained 24 hours prior to the wheel test. […] Free Wheel Running: Voluntary wheel running was used as the exercise paradigm to avoid any physiological changes that may occur due to the stress of forced treadmill running. Mice were housed singly for a 24 hour period in a polycarbonate running wheel equipped with a magnetic counter, the output of which was sent to a speedometer, allowing quantification of the number of revolutions per day. Creatine Kinase Activity Measurements: quantitative and kinetic determination of creatine kinase activity in serum of control and drug treated-animals was measured using creatine kinase reagent (Sigma), according to the manufacturer's instructions. Blood was collected from tail of 2-7 months-old mice and serum obtained after centrifugation at 13.000 rpm for 10 minutes was stored at −80° C. before measurements. Histology: Diaphragm and tibialis anterior of untreated and drug-treated mice were isolated and included in Killik frozen section medium, quickly frozen and cut into 8-μm thick sections with the muscle fibres oriented transversely using a cryostat. Sections were stained with either Hematoxylin & Eosin or Azan Mallory, to evaluate the number of inflammatory infiltrates and necrotic fibres ([…] for tissue).

[2] = system: α-sarcoglycan (SG)-null C57BL/6 mice; assay: Free wheel running test (voluntary wheel running), muscular dystrophy model; type: in vivo; details: daily in the diet
Experimental: as §1, §2

[3] = system: α-sarcoglycan (SG)-null C57BL/6 mice; assay: Creatine kinase activity measurements in serum, muscular dystrophy model; type: in vivo; details: daily in the diet, Ib 100, XXXVb 12, IIIb 30, prednisolone 3 mg/kg
Experimental: as §1, §2

α-SG-null mice = assay: In vivo functional test: resistance to fatigue (exhaustion) by treadmill; details: for Extent of the benefit (%) on exhaustion time, treated vs untreated mice: in the diet
Experimental: The effectiveness of naproxcinod, isosorbide dinitrate (ISD) alone and in combination with ibuprofen, molsidomine and prednisolone were evaluated using a test of functional recovery in a mouse model of muscular dystrophy (α-SG-null mice). The experiments to assess the functional recovery in α-SG-null mice were performed according to the following experimental protocol. All experiments and functional evaluations were performed by the same operator in the same laboratory.
α-SG-null mice were housed in a pathogen-free facility, treated in accordance with the European Community Guidelines and with the approval of the Institutional Ethical Committee. Mice were given the following treatments: 3 mg/kg of molsidomine, 30 mg/kg of naproxcinod, 30 mg/kg of ISD alone and in combination with 50 mg/kg of ibuprofen, or 2 mg/kg of prednisolone incorporated in the diet. Control groups received the same diet without any drugs. Standard diet and diets containing the drugs were prepared based on the daily food intake of 3 g. Mice were treated starting at 1 month of age.
Analyses were carried out using a six-lane motorized treadmill (Exeter 3/6 treadmill, Columbus Instruments, OH, USA) supplied with shocker plates. The initial trials were performed at low intensity and for a short duration of time to get mice accustomed to the exercise; the treadmill was then run without inclination at 5 m/min for 5 min, after which the speed was increased 1 m/min every 3 min until a speed of 10 m/min was reached. The test was stopped when the mouse remained on the shocker for 20 sec without attempting to reengage the treadmill.
The extent of benefit (%) is expressed as the percent of the improvement of treated mice (diet containing the drug) compared to untreated mice (standard diet) on the exhaustion time.

[4] = 80 days of treatment, daily in the diet, Ib 100 mg/kg, XXXVb 12 mg/kg, IIIb 30 mg/kg, prednisolone 3 mg/kg
[5] = 80 days of treatment, daily in the diet, Ib 100 mg/kg, XXXVb 12 mg/kg, IIIb 30 mg/kg, prednisolone 3 mg/kg, Azan Mallory staining
[6] = 20 days of treatment, Ib 100, XXXVb 12, IIIb 30, prednisolone 3 mg/kg
[7] = 40 days of treatment, Ib 100, XXXVb 12 mg/kg
[8] = 60 days of treatment, Ib 100, XXXVb 12 mg/kg

For `CC[C@H](C)C(=O)O[C@H]1C[C@H](O)C=C2C=C[C@H](C)[C@H](CCC(O)C[C@H](O)CC(=O)OCCCCO[N+](=O)[O-])[C@H]21` (relative stereo) [(XXXVb), [1S-[1α(βS*,δS*),2α,6α,8β-(R*),8aα]]-1,2,6,7,8,8a-hexahydro-β,δ,6-trihydroxy-2-methyl-8-(2-methyl-1-oxobutoxy)-1-naphthaleneheptanoic acid 4-(nitrooxy)butyl ester], the “N° of necrotic Fibres/section” value [1, 4] was 35 ± 2.1, the “N° of inflammatory Infiltrates/section” value [1, 5] was 54.2 ± 8.05 and the “Overall effect on histological, functional and biochemical alterations (in words)” value (from here on “Overall effect on histological”) ([1]; daily in the diet) was “significantly effective in reducing the histological, functional and biochemical alterations”. For the same molecule, the Free wheel test [2, 6] was 0.55 ± 0.03 km/24 h, the Free wheel test [2, 7] was 0.58 ± 0.01 km/24 h and the Free wheel test [2, 8] was 0.54 ± 0.03 km/24 h. For the same molecule, the Free wheel test ([2]; 80 days of treatment, XXXVb 12 mg/kg) was 0.65 ± 0.05 km/24 h, the CK plasma level ([3]; 20 days of treatment) was 440.6 ± 33**^ U/ml and the CK plasma level ([3]; 40 days of treatment) was 488.2 ± 96.5 U/ml. For the same molecule, the CK plasma level ([3]; 60 days of treatment) was 627.4 ± 69.3 U/ml and the CK plasma level ([3]; 80 days of treatment) was 614.8 ± 37**^ U/ml.

`CC(C(=O)OCCCCO[N+](=O)[O-])c1ccc(-c2ccccc2)c(F)c1` (centres unmarked) [(IIIb), 2-fluoro-alfa-methyl-4[1,1′-biphenyl]4-acetic acid 4-nitrooxybutyl ester] was tested, and the “N° of inflammatory Infiltrates/section” value ([1]; mouse, in vivo) was 84.2 ± 22.5, the “N° of necrotic Fibres/section” value ([1]; mouse, in vivo) was 48.4 ± 2.3 and the “Overall effect on histological” value ([1]; daily in the diet) was “significantly effective in reducing the histological, functional and biochemical alterations”. It also gave a Free wheel test [2, 6] of 0.95 ± 0.1 km/24 h, a CK plasma level ([3]; 20 days of treatment) of 662.6 ± 41 U/ml and a CK plasma level ([3]; 40 days of treatment) of 824.0 ± 90.5 U/ml. It also gave a CK plasma level ([3]; 60 days of treatment) of 648.2 ± 25.2 U/ml and a CK plasma level ([3]; 80 days of treatment) of 482.3 ± 51.2 U/ml.

`CC(=O)Oc1ccccc1C(=O)Oc1cccc(CO[N+](=O)[O-])c1` [(Ib), 2-(acetyloxy)benzoic acid 3-(nitrooxymethyl)phenyl ester] was tested, and the “N° of necrotic Fibres/section” value [1, 4] was 124.1 ± 33, the “N° of inflammatory Infiltrates/section” value [1, 5] was 91.3 ± 34.5 and the “Overall effect on histological” value ([1]; daily in the diet) was “significantly effective in reducing the histological, functional and biochemical alterations”. The Free wheel test [2, 6] was 0.65 ± 0.07 km/24 h, the Free wheel test [2, 7] was 0.42 ± 0.08 km/24 h and the Free wheel test [2, 8] was 0.31 ± 0.1 km/24 h. The CK plasma level ([3]; 20 days of treatment) was 665.6 ± 51 U/ml, the CK plasma level ([3]; 40 days of treatment) was 944.0 ± 95.5 U/ml and the CK plasma level ([3]; 60 days of treatment) was 444.2 ± 20.2 U/ml. It also gave a CK plasma level ([3]; 80 days of treatment) of 494.6 ± 56.1 U/ml.

`C[C@]12C=CC(=O)C=C1CC[C@@H]1[C@@H]2[C@@H](O)C[C@@]2(C)[C@H]1CC[C@]2(O)C(=O)CO` [Prednisolone, prednisolone, reference compound] was tested, and the “Extent of the benefit (%) on exhaustion time, treated vs untreated mice” value (“Extent of the benefit (%)” for short) (α-SG-null mice; 6 months of treatment, prednisolone 2 mg/kg) was 117%, the “Extent of the benefit (%)” value (α-SG-null mice; 12 months of treatment, prednisolone 2 mg/kg) was 100% and the “N° of necrotic Fibres/section” value [1, 4] was 197.1 ± 23. The “N° of inflammatory Infiltrates/section” value [1, 5] was 59.4 ± 7.00, the Free wheel test [2, 6] was 0.55 ± 0.1 km/24 h and the CK plasma level ([3]; 20 days of treatment) was 440.6 ± 33**^ U/ml. It also gave a CK plasma level ([3]; 40 days of treatment) of 488.2 ± 96.5 U/ml, a CK plasma level ([3]; 60 days of treatment) of 711.3 ± 69.3 U/ml and a CK plasma level ([3]; 80 days of treatment) of 717.6 ± 31.1 U/ml.

With `CCOC(=O)[N-]c1cn(N2CCOCC2)n[o+]1` [molsidomine] the “Extent of the benefit (%)” value (α-SG-null mice; 8 months of treatment, molsidomine 3 mg/kg, ISD 30 mg/kg, ibuprofen 50 mg/kg) was 63%.

For `COc1ccc2cc([C@H](C)C(=O)OCCCCO[N+](=O)[O-])ccc2c1` [naproxcinod], the “Extent of the benefit (%)” value (α-SG-null mice; 4 months of treatment, naproxcinod 30 mg/kg, ISD 30 mg/kg, ibuprofen 50 mg/kg) was 150% and the “Amelioration of muscle function (in words)” value (α-SG-null mice; compared to molsidomine, ISD alone, ISD and ibuprofen, or prednisolone) was “superior amelioration of the muscle function”.

From patent US8802726B2, “Use of nitrooxyderivative of drug for the treatment of muscular dystrophies” (Nicox S.A., priority 2006, dated 2014)
